Tests used:
[1] = single ascending dose study of immediate release ajulemic acid, adverse events; format: in vivo, human
From the text: FIG. 1 is a graph of the dose proportionality of Cmax and AUC0-24 in a single dose study in human subjects of immediate release ajulemic acid.
(§1) Administration of immediate release formulations of the THC derivative ajulemic acid may result in adverse events. Representative pharmacokinetic data for administration of ajulemic acid in immediate release form is shown in FIG. 1 (single ascending dose) and 2 (multiple ascending dose). The data in FIG. 2 are based on greater sampling days 1 and 7. In the single dose study, adverse events were observed when 80 mg or higher was administered. In the multiple dose study, adverse events were observed when 40, 60, and 80 mg was administered three times a day. In the single ascending dose study in fasted subjects, the most frequently occurring adverse events were dizziness (33.3%); nausea (20.8%); vomiting (14.6%); pallor (12.5%); dry mouth; headache; somnolence; tremor; and disorientation (10.4%). Other adverse events include tachycardia, fatigue, feeling drunk, paraesthesia, and euphoric mood (6.3%); and muscle spasms, muscle tightness, disturbance in attention, deja vu, and altered mood (4.2%). In the multiple ascending dose study, the most frequently occurring adverse events were dizziness (38.9%); nausea and somnolence (16.7%); and dry mouth, fatigue, feeling abnormal, anorexia, inappropriate affect, and orthostatic hypotension (11.1%).

[2] = multiple ascending dose study of immediate release ajulemic acid three times a day, adverse events; format: in vivo, human
Description: FIG. 2 is a graph of the concentration of ajulemic acid as a function of time in a multiple ascending dose study in human subjects of ajulemic acid administered in an immediate release formulation three times a day (6-6-12 hours). For the 80<=60 mg data, the first four doses were 80 mg and all remaining doses were 60 mg.
as §1

[3] = single ascending dose, fasted subjects

Question: For CCCCCCC(C)(C)c1cc(O)c2c(c1)OC(C)(C)[C@@H]1CC=C(C(=O)O)C[C@@H]21 [ajulemic acid, (6aR,10aR)-3-(1,1-dimethylheptyl)-Δ8-tetrahydro-cannabinol-9-carboxylic acid], which “adverse event frequency: altered mood” value [1, 3] is on record?
Answer: Its value is 4.2%.

Question: What about the “adverse event frequency: deja vu” value [1, 3] of the same compound?
Answer: Its value is 4.2%.

Question: What about the “adverse event frequency: disorientation” value [1, 3] of the same compound?
Answer: Its value is 10.4%.

Question: And the “adverse event frequency: disturbance in attention” value [1, 3]?
Answer: The value was 4.2%.

Question: What about the “adverse event frequency: dizziness” value [1, 3] of the same compound?
Answer: Its value is 33.3%.

Question: And the “adverse event frequency: dry mouth” value [1, 3]?
Answer: Its value is 10.4%.

Question: And the “adverse event frequency: euphoric mood” value [1, 3]?
Answer: The value was 6.3%.

Question: And the “adverse event frequency: fatigue” value [1, 3]?
Answer: Its value is 6.3%.

Question: And the “adverse event frequency: feeling drunk” value [1, 3]?
Answer: Its value is 6.3%.

Question: And the “adverse event frequency: headache” value [1, 3]?
Answer: Its value is 10.4%.

Question: What about the “adverse event frequency: muscle spasms” value [1, 3] of the same compound?
Answer: Its value is 4.2%.

Question: And the “adverse event frequency: muscle tightness” value [1, 3]?
Answer: The value was 4.2%.

Question: What about the “adverse event frequency: nausea” value [1, 3] of the same compound?
Answer: Its value is 20.8%.

Question: And the “adverse event frequency: pallor” value [1, 3]?
Answer: Its value is 12.5%.

Question: What about the “adverse event frequency: paraesthesia” value [1, 3] of the same compound?
Answer: The value was 6.3%.

Question: What about the “adverse event frequency: somnolence” value [1, 3] of the same compound?
Answer: Its value is 10.4%.

Question: What about the “adverse event frequency: tachycardia” value [1, 3] of the same compound?
Answer: Its value is 6.3%.

Question: And the “adverse event frequency: tremor” value [1, 3]?
Answer: Its value is 10.4%.

Question: What about the “adverse event frequency: vomiting” value [1, 3] of the same compound?
Answer: Its value is 14.6%.

Question: What about the “dose at which adverse events were observed” value ([1]; single dose study) of the same compound?
Answer: Its value is at least 80 mg.

Question: What about the “adverse event frequency: anorexia” value [2] of the same compound?
Answer: Its value is 11.1%.

Question: What about the “adverse event frequency: dizziness” value [2] of the same compound?
Answer: The value was 38.9%.

Question: And the “adverse event frequency: dry mouth” value [2]?
Answer: The value was 11.1%.

Question: What about the “adverse event frequency: fatigue” value [2] of the same compound?
Answer: The value was 11.1%.

Question: What about the “adverse event frequency: feeling abnormal” value [2] of the same compound?
Answer: Its value is 11.1%.

Question: What about the “adverse event frequency: inappropriate affect” value [2] of the same compound?
Answer: The value was 11.1%.

Question: And the “adverse event frequency: nausea” value [2]?
Answer: Its value is 16.7%.

Question: And the “adverse event frequency: orthostatic hypotension” value [2]?
Answer: The value was 11.1%.

Question: What about the “adverse event frequency: somnolence” value [2] of the same compound?
Answer: The value was 16.7%.
